Literature values, collected in patent US20070275929A1, “Composition and method for controlling the transmission of noroviruses” (THE DIAL CORPORATION, priority 2006, published 2007).

Test system: norovirus
Conditions: alcohol alone

## CCO [alcohol]
  contact time required to reduce norovirus populations by a factor of 3: 30 min
